For six compounds, Bliss excess results are on record in the supplement of paper PMC11061612.

Assay in all cases: Bliss excess, mean over the matrix (fraction); higher = more synergy
For assay [1], the system named is KARPAS-1106P (B-Cell Non-Hodgkin's Lymphoma). The procedure, abridged: (§1)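 Cell lines in DMEM/F12 or RPMI with 10% FBS were plated in 1536-well plates, held 24 hours at 37°C, 5% CO2, then given two-drug dose matrices for 72 hours (DMSO typically 0.2%). Viability was read by CellTiter-Glo 2.0 luminescence and scaled as inhibition from 0 (vehicle wells) to 1 (blank wells). Combination Emax is the second-highest inhibition in the matrix; Bliss excess is observed combination effect minus expected EA + EB − EA·EB, EA and EB being single-agent effects.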

The subject of assay [2] is DMS-273 (Small Cell Lung Carcinoma). A digest of the protocol: as §1
Assay [3] has as its system SW756 (Cervical Carcinoma). A digest of the protocol: as §1
Assay [4] has as its system TGBC24TKB (Biliary Tract Carcinoma). The procedure, abridged:
as §1

Assay [5] has as its system TE-5 (Esophageal Squamous Cell Carcinoma). The procedure, abridged: as §1
Assay [6] deals with OCI-AML2 (Acute Myeloid Leukemia). The procedure, abridged: as §1
A further assay has as its system CAL-78 (Chondrosarcoma). A digest of the protocol: as §1
The subject of assay [7] is SNU-C5 (Colorectal Carcinoma). The procedure, abridged:
as §1

Another assay has as its system NCI-H2595 (Mesothelioma). The procedure, abridged:
as §1

Another assay deals with DSH1 (Bladder Carcinoma). The procedure, abridged: as §1
The test system of assay [8] is MDA-MB-157 (Breast Carcinoma). A digest of the protocol: as §1
In assay [9] the test system is SUIT-2 (Pancreatic Carcinoma). A digest of the protocol: as §1
In a further assay the test system is ES7 (Ewing's Sarcoma). A digest of the protocol:
as §1

In assay [10] the test system is 697 (B-Lymphoblastic Leukemia). A digest of the protocol: as §1
The subject of a further assay is NCI-H2369 (Mesothelioma). The procedure, abridged:
as §1

The test system of assay [11] is C3A (Hepatocellular Carcinoma). A digest of the protocol:
as §1

The subject of assay [12] is CFPAC-1 (Pancreatic Carcinoma). The procedure, abridged:
as §1

Assay [13] relates to KM-H2 (Hodgkin's Lymphoma). The procedure, abridged:
as §1

A further assay has as its system SK-N-FI (Neuroblastoma). The procedure, abridged:
as §1

Another assay relates to SN12C (Kidney Carcinoma). The procedure, abridged: as §1

Structures are written as SMILES.

As for `CN(CCO)CC[C@H](CSc1ccccc1)Nc1ccc(S(=O)(=O)NC(=O)c2ccc(N3CCC([C@@H](O)c4ccccc4-c4ccc(Cl)cc4)CC3)cc2)cc1S(=O)(=O)C(F)(F)F` [AZD4320] + Cc1cc2ncnn2cc1Nc1ncc2c(n1)n(C1CCOCC1)c(=O)n2C [AZD7648] (first compound max 1 µM, 7x7, partner max 10 µM), the Bliss excess was 0.0101 in [1]; 0.0127 in [2]; -0.051 in assay [3]; 0.0059 in [4]; -0.033 in [5]; 0.0136 in assay [6]. The Bliss excess in the assay on CAL-78 (Chondrosarcoma) was -0.0388; in assay [7], -0.0257; with NCI-H2595 (Mesothelioma), -0.0214; in the assay with DSH1 (Bladder Carcinoma) it was -0.0266; in assay [8] it was -0.0225; in assay [9] it was -0.0389. Moreover, the Bliss excess in the assay on ES7 (Ewing's Sarcoma) was -0.0455; in [10], -0.0305; in the assay on NCI-H2369 (Mesothelioma), -0.0411; in assay [11], -0.0546; in assay [12], -0.0345; in assay [13], -0.0231. For the same compound, the Bliss excess in the assay on SK-N-FI (Neuroblastoma) is -0.0203; in the assay on SN12C (Kidney Carcinoma), -0.0578.

For the compound `NC1(C(=O)N[C@@H](CCO)c2ccc(Cl)cc2)CCN(c2ncnc3[nH]ccc23)CC1` [Capivasertib] + CCN(CCO)CCCOc1ccc2c(Nc3cc(CC(=O)Nc4cccc(F)c4)[nH]n3)ncnc2c1 [AZD2811] (first compound max 10 µM, 7x7, partner max 1 µM), the Bliss excess is 0.0426 in assay [1]; -0.0015 in assay [2]; -0.0299 in assay [3]; 0.0111 in assay [4]; -0.0283 in assay [5]; 0.0134 in assay [6]. Besides, the Bliss excess with CAL-78 (Chondrosarcoma) was 0.024; in assay [7] it was -0.0571; with NCI-H2595 (Mesothelioma), -0.0718; with DSH1 (Bladder Carcinoma) it was -0.0694; in [8], 0.0354; in assay [9] it was -0.0074. The Bliss excess was -0.0354 in the assay with ES7 (Ewing's Sarcoma); -0.0593 in assay [10]; -0.0446 in the assay on NCI-H2369 (Mesothelioma); -0.0156 in assay [11]; 0.0281 in [12]; -0.0195 in [13]. In addition, the Bliss excess was -0.0265 in the assay with SK-N-FI (Neuroblastoma) and -0.0536 in the assay with SN12C (Kidney Carcinoma).

`CN(CCO)CC[C@H](CSc1ccccc1)Nc1ccc(S(=O)(=O)NC(=O)c2ccc(N3CCC([C@@H](O)c4ccccc4-c4ccc(Cl)cc4)CC3)cc2)cc1S(=O)(=O)C(F)(F)F` [AZD4320] + CCN(CCO)CCCOc1ccc2c(Nc3cc(CC(=O)Nc4cccc(F)c4)[nH]n3)ncnc2c1 [AZD2811] (first compound max 1 µM, 7x7, partner max 1 µM): the Bliss excess is 0.0326 in assay [1]; -0.0732 in [2]; -0.0334 in assay [3]; 0.0337 in assay [4]; 0.0379 in assay [5]; 0.0189 in assay [6]. Further, the Bliss excess in the assay with CAL-78 (Chondrosarcoma) is 0.117; in assay [7], 0.0121; in the assay on NCI-H2595 (Mesothelioma) it was -0.032; in the assay on DSH1 (Bladder Carcinoma) it was 0.0821; in assay [8], 0.0101; in assay [9], -0.0472. Further, the Bliss excess was 0.0493 in the assay on ES7 (Ewing's Sarcoma); 0.0021 in assay [10]; 0.0005 with NCI-H2369 (Mesothelioma); -0.0487 in [11]; -0.0754 in assay [12]; -0.0035 in assay [13]. Besides, the Bliss excess was -0.022 with SK-N-FI (Neuroblastoma) and -0.0249 in the assay on SN12C (Kidney Carcinoma).

Take `COc1nnc2ccc(N3CCC(c4ccc(OCCN5CCN(C)C(=O)[C@H]5C)cc4)CC3)nn12` [AZD5153] + C=CCn1c(=O)c2cnc(Nc3ccc(N4CCN(C)CC4)cc3)nc2n1-c1cccc(C(C)(C)O)n1 [AZD1775] (first compound max 1 µM, partner max 1 µM): the Bliss excess in assay [1] was -0.0966; in assay [2] it was -0.0377; in assay [3] it was -0.05; in assay [4] it was -0.0367; in assay [5] it was -0.0148; in assay [6] it was -0.0293. Besides, the Bliss excess with CAL-78 (Chondrosarcoma) is -0.0766; in assay [7] it was -0.0291; with NCI-H2595 (Mesothelioma), -0.0353; with DSH1 (Bladder Carcinoma), -0.132; in [8] it was -0.0313; in assay [9], 0.0152. The Bliss excess in the assay on ES7 (Ewing's Sarcoma) is -0.0364; in [10], -0.0478; in the assay with NCI-H2369 (Mesothelioma) it was -0.0392; in assay [11], 0.0547; in [12], -0.119; in [13], -0.101. For the same compound, the figures for the Bliss excess in the assay with SK-N-FI (Neuroblastoma) and with SN12C (Kidney Carcinoma) were -0.105 and -0.128, respectively.

`CN(CCO)CC[C@H](CSc1ccccc1)Nc1ccc(S(=O)(=O)NC(=O)c2ccc(N3CCC([C@@H](O)c4ccccc4-c4ccc(Cl)cc4)CC3)cc2)cc1S(=O)(=O)C(F)(F)F` [AZD4320] + C[C@@H](Nc1cc(F)cc(F)c1)c1cc(C(=O)N(C)C)cc2c(=O)cc(N3CCOCC3)oc12 [AZD8186] (first compound max 1 µM, 7x7, partner max 3 µM): the Bliss excess in assay [1] is 0.0758; in assay [2] it was 0.0236; in [3], -0.0213; in assay [4], 0.0011; in assay [5], -0.0144; in [6], 0.0556. Also, the Bliss excess in the assay with CAL-78 (Chondrosarcoma) was 0.0323; in assay [7] it was -0.0704; in the assay with NCI-H2595 (Mesothelioma), 0.0344; in the assay with DSH1 (Bladder Carcinoma), -0.0381; in assay [8], 0.0338; in assay [9], 0.025. Moreover, the Bliss excess in the assay with ES7 (Ewing's Sarcoma) is 0.136; in assay [10], -0.003; with NCI-H2369 (Mesothelioma), -0.0251; in assay [11] it was 0.0183; in [12], 0.0585; in assay [13], 0.0237. In addition, the values for the Bliss excess in the assay with SK-N-FI (Neuroblastoma) and in the assay on SN12C (Kidney Carcinoma) were -0.0165 and -0.0193, respectively.

In the case of `CC(=O)Nc1cccc(-n2c(=O)n(C3CC3)c(=O)c3c(Nc4ccc(I)cc4F)n(C)c(=O)c(C)c32)c1` [Trametinib] + Cc1nc(-c2cn3c(n2)-c2ccc(-c4cnn(C(C)(C)C(N)=O)c4)cc2OCC3)n(C(C)C)n1 [Taselisib] (first compound max 1 µM, 7x7, partner max 10 µM), the Bliss excess in assay [1] worked out at 0.088; in assay [2], 0.0427; in [3] it was 0.0988; in assay [4] it was 0.196; in assay [5], 0.101; in assay [6] it was 0.0227. The Bliss excess in the assay with CAL-78 (Chondrosarcoma) was found to be 0.0728; in assay [7] it was 0.0951; in the assay with NCI-H2595 (Mesothelioma), 0.0412; with DSH1 (Bladder Carcinoma), 0.0704; in assay [8], 0.0963; in [9], 0.0928. Also, the Bliss excess in the assay with ES7 (Ewing's Sarcoma) stood at 0.0164; in assay [10] it was 0.117; in the assay with NCI-H2369 (Mesothelioma), 0.046; in [11] it was 0.147; in assay [12], 0.148; in assay [13], 0.0338. Moreover, the values for the Bliss excess in the assay on SK-N-FI (Neuroblastoma) and in the assay with SN12C (Kidney Carcinoma) were 0.033 and 0.0395, respectively.
